{"source": "paper PMC6198068", "about": "“Discovery of a Novel Nav1.7 Inhibitor From Cyriopagopus albostriatus Venom With Potent Analgesic Efficacy” (Frontiers in Pharmacology, 2018)", "key": {"Nav1.3": {"target": "T1, Nav1.3 (Homo sapiens, UniProt Q9NY46)", "T1 construct": "expressed in transfected cells; host or cells: HEK293T", "assay": "Whole-cell patch-clamp, Nav1.3 in HEK293T cells", "type": "cell-based", "conditions": "mean ± SEM", "text": "(§1) The cDNA genes encoding rat Nav1.4 and human Nav1.7 were subcloned into vectors pRGB4 and pcDNA3.1-mod, respectively. Mutations of rNav1.4 (N655D, Q657E, and N655D/Q657E) and hNav1.7 (D816N, E818Q, and D816N/E818Q) were constructed using the Gene Tailor Site-Directed Mutagenesis system (Invitrogen, Carlsbad, CA, United States), according to the manufacturer’s instructions. Nav1.2–Nav1.7 and mutant plasmids together with eGFP were transiently transfected into HEK293T cells while Nav1.8 together with eGFP was transiently transfected into ND7/23 cells by Lipofectamine 2000 (Invitrogen, Carlsbad, CA, United States). Additionally, plasmids β1- and β2-eGFP encoding the human β1 and β2 subunits, respectively, were co-transfected with those encoding WT Nav1.7 and Nav1.7 mutations in HEK293T cells. […] Cells with green fluorescent protein fluorescence were selected for whole-cell patch-clamp recordings 24 h after transfection.\n(§2) Whole-cell patch-clamp recordings were performed at room temperature (20–25°C) using an EPC 10 USB Patch Clamp Amplifier (HEKA, Elektronik, Lambrecht, Germany). […] Data was analyzed by software Igo Pro 6.10A (WaveMetrics, Lake Oswego, OR, United States), SigmaPlot 10.0 (Sigma-Aldrich, St. Louis, MO, United States), OriginPro 8 (OriginLab Corp., Northampton, MA, United States), and GraphPad Prism 5 (GraphPad Software, San Diego, CA, United States). […]"}, "Nav1.8": {"tested_on": "Nav1.8", "assay": "Whole-cell patch-clamp, Nav1.8 in ND7/23 cells", "type": "cell-based", "conditions": "up to 10 μM, depolarization to +20 mV", "text": "as §1, §2"}, "Human Nav1.9": {"tested_on": "Human Nav1.9", "assay": "Whole-cell patch-clamp, Nav1.9 in ND7/23 cells", "type": "cell-based", "conditions": "up to 10 μM, 50 ms to −40 mV from −120 mV, in presence of 1 μM TTX"}, "Nav1.7": {"target": "T2, Nav1.7 (Homo sapiens, UniProt Q15858)", "T2 construct": "expressed in transfected cells; host or cells: HEK293T", "T2 sequence (O60939 30-215)": "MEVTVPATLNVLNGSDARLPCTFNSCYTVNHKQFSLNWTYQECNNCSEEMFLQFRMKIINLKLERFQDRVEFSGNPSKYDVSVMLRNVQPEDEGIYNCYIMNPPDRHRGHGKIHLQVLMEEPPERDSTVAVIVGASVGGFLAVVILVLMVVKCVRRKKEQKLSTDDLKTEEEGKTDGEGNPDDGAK", "T2 sequence (Q15858 other isoform, or with tags, fused parts or gaps)": "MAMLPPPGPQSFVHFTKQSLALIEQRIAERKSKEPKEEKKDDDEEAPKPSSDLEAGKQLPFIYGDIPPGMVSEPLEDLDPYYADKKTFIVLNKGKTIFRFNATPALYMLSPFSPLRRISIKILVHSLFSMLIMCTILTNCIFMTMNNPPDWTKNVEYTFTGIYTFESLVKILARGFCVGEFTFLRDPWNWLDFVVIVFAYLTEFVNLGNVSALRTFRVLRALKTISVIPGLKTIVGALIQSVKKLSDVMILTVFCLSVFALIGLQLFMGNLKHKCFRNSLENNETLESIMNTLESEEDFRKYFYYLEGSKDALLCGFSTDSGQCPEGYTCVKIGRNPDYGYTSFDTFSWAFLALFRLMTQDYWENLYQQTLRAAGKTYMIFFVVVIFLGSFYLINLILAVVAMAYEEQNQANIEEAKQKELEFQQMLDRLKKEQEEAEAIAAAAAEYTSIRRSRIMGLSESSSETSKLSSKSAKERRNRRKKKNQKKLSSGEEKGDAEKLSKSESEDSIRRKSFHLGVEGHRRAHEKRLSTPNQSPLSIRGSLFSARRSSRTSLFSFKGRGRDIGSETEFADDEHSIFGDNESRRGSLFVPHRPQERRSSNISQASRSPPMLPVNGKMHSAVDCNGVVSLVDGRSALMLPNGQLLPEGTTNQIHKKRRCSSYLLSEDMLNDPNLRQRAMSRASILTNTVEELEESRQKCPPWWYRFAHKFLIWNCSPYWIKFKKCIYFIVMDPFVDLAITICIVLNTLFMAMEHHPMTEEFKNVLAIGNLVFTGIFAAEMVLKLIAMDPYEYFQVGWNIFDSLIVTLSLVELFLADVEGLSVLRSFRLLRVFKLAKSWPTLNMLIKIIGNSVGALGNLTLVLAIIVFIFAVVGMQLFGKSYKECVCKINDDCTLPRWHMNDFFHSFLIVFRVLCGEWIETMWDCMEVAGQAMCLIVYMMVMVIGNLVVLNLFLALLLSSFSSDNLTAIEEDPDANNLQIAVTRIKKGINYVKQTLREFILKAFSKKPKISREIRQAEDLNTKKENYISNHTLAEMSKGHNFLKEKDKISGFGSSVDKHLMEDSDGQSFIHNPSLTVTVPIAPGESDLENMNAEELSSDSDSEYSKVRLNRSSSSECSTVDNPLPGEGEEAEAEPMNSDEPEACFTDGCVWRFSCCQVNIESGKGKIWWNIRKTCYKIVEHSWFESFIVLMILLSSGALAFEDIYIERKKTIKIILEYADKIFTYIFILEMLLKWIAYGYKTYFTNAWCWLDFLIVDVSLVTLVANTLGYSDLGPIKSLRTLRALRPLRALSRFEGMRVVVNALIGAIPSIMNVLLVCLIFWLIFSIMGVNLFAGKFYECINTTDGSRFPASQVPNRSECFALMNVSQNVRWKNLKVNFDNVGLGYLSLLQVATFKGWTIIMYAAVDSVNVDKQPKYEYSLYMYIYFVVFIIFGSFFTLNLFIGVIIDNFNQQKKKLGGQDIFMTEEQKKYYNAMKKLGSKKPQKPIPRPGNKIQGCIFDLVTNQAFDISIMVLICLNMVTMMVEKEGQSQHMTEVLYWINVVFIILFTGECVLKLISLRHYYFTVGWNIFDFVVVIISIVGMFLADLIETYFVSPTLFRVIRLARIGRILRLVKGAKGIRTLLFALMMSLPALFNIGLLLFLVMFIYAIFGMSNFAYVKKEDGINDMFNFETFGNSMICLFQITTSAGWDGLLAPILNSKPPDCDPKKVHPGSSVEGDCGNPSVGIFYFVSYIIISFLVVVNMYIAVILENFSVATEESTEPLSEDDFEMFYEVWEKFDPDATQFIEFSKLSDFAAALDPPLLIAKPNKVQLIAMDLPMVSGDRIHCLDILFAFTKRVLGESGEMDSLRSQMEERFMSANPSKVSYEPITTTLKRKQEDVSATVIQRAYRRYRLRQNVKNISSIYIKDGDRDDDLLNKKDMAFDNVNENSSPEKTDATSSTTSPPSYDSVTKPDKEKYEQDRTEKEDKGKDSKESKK", "T2 sequence (Q07699 19-218, further chain)": "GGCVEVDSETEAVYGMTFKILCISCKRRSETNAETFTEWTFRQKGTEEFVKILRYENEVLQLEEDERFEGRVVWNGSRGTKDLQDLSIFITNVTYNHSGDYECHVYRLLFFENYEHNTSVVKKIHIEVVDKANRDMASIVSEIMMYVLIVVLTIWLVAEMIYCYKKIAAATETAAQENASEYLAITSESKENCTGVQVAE", "assay": "Rate of toxin dissociation from Nav1.7 at depolarizing pulses", "type": "cell-based", "conditions": "1 μM, mean ± SEM, n = 6–11 cells", "text": "as §1, with “cells. Human Nav1.9 was transfected into ND7/23 cells according to a previous report ([Zhou et al., 2017]).” for “cells.”\nas §2\nFast inactivation time constants were calculated by fitting current decay traces with a single exponential function using the I–V protocol described above. Recovery from fast-inactivation (repriming) was assessed by using a two-pulse protocol consisting of a depolarizing pulse to −10 mV for 50 ms to inactivate channels, followed by a step to −100 mV of variable duration (1 to 1024 ms) to promote recovery, and 50 ms test pulse to −10 mV to assess availability of channels. […]"}, "Nav1.7/E818Q": {"tested_on": "Nav1.7/E818Q", "assay": "Whole-cell patch-clamp, Nav1.7/E818Q in HEK293T cells", "type": "cell-based, human", "conditions": "1 μM, n = 5 cells", "text": "as §1, §2"}}, "note": "Where a SMILES comes first, the peptide text is derived from it. Bridges are numbered along the chain shown (N, C = ends).", "data": [{"smiles": "CC(C)C[C@H](NC(=O)[C@H](CC(=O)O)NC(=O)[C@H](Cc1ccc(O)cc1)NC(=O)[C@H](CCCCN)NC(=O)[C@@H]1CSSC[C@@H]2NC(=O)[C@H](CCCCN)NC(=O)[C@H](CC(=O)O)NC(=O)[C@H](CC(N)=O)NC(=O)[C@H](CO)NC(=O)[C@@H]3CCCN3C(=O)[C@H](CC(N)=O)NC(=O)[C@@H]3CSSC[C@H](NC(=O)[C@H](C(C)C)NC(=O)[C@H](CC(C)C)NC(=O)[C@H](CO)NC(=O)[C@H](CO)NC(=O)[C@H](CO)NC(=O)[C@H](CCCCN)NC(=O)[C@H](CSSC[C@H](NC(=O)[C@H](C)N)C(=O)N[C@@H](CC(C)C)C(=O)NCC(=O)N[C@@H](Cc4ccccc4)C(=O)NCC(=O)N[C@@H](CCC(=O)O)C(=O)N[C@@H](CCCCN)C(=O)N3)NC2=O)C(=O)N[C@@H](CO)C(=O)N[C@@H](CCC(N)=O)C(=O)N[C@@H](CCCCN)C(=O)N[C@@H](Cc2c[nH]cn2)C(=O)N[C@@H](CCCCN)C(=O)N[C@@H](Cc2c[nH]c3ccccc23)C(=O)N1)C(=O)O", "note": "[Ca2a] (H-ACLGFGEKCNPSNDKCCKSSSLVCSQKHKWCKYDL-OH; disulfide 2-17, 9-24, 16-31 (inferred); N-terminus and C-terminus assumed)", "values": [{"measurement": "decrease of Nav1.3 current amplitude", "setting": "Nav1.3; 1 μM, 50 ms to −10 mV from −100 mV", "value": "67.7 ± 3.8", "unit": "%"}, {"measurement": "IC50", "setting": "Nav1.3; whole-cell patch-clamp, n = 4–7 cells per data point", "value": "491.3 ± 3.9", "unit": "nM"}, {"measurement": "inhibitory effect on Nav1.8 currents", "setting": "Nav1.8", "value": "no inhibitory effects"}, {"measurement": "inhibitory effect on Nav1.9 currents", "setting": "Human Nav1.9", "value": "no inhibitory effects"}, {"measurement": "dissociation time constant from Nav1.7", "setting": "Nav1.7; at 60 mV", "value": "547.2 ± 24.3", "unit": "ms"}, {"measurement": "dissociation time constant from Nav1.7", "setting": "Nav1.7; at 80 mV", "value": "347.9 ± 29.2", "unit": "ms"}, {"measurement": "dissociation time constant from Nav1.7", "setting": "Nav1.7; at 100 mV", "value": "169.8 ± 25.6", "unit": "ms"}, {"measurement": "activity on Nav1.7/E818Q", "setting": "Nav1.7/E818Q", "value": "no activity"}]}]}
